Data set [1] deals with lymphoblasts of CDG-Ia diseases. In words: inhibition of incorporation of 2-[3H]mannose into cellular glycoconjugates ("radioactivity"). The data set is classed as cell-based, human. As to conditions: dose of 500 μM; for Radioactivity (inhibition, by competition, of the binding of 2-[3H]mannose-1 phosphate): percentage relative to the controls, lymphoblasts of CDG-Ia, 5 trials per product; for effectiveness in inhibiting the incorporation of radioactive mannose into glycoproteins (in words): lymphoblasts, comparison between products. As for the experimental part: (§1) The compounds of formula I, II and III were tested as prodrugs (i.e. as intracellular sources of Man-1 P), on the one hand, in order to evaluate their toxicity and, on the other hand, in order to assess their capacity to inhibit the incorporation of 2-[^3H]mannose into cellular glycoconjugates. Indeed, while they can generate Man-1 P in cells, it will be in competition with 2-[^3H]mannose-1 phosphate for entering the pathway for biosynthesis of glycoproteins (see Eklund, E. A., et al. cited above).
(§2) The products were tested (5 trials per product and per dose) on lymphoblasts of CDG-Ia diseases and their activities (“radioactivity”, i.e. inhibition, by competition, of the binding of 2-[^3H]mannose-1 phosphate; and cell “toxicity”) were assessed as a percentage relative to the controls (10 trials).

For data set [2] the test system is unchanged. In words: cell toxicity on lymphoblasts. In kind it is cell-based. As to conditions: dose of 500 μM; for cell mortality / toxicity (in words): lymphoblasts, comparison with CP1, CP3 and CP6; for Toxicity (cell toxicity): percentage relative to the controls, lymphoblasts of CDG-Ia, 5 trials per product. As for the experimental part: as §1, §2

In the case of `CC(=O)OC[C@H]1O[C@H](OP(=O)(OCOC(=O)C(C)(C)C)OCOC(=O)C(C)(C)C)[C@@H](OC(C)=O)[C@@H](OC(C)=O)[C@@H]1OC(C)=O` [CP1, di(pivaloyloxymethyl) (2,3,4,6-tetra-O-acetyl)-α-D-mannopyranosyl-1] phosphate], in data set [1], the “Radioactivity (inhibition, by competition, of the binding of 2-[3H]mannose-1 phosphate)” value worked out at 92%. In data set [2], the “cell mortality / toxicity (in words)” value is “at least a doubling of cell mortality” and the “Toxicity (cell toxicity)” value is 210%.
For the molecule “Benzyl di(2,3,4,6-tetra-O-isobutyryl-α-D-mannopyranosyl-1) phosphate [Ex. 12]”, in data set [1], the “effectiveness in inhibiting the incorporation of radioactive mannose into glycoproteins (in words)” value is “less effective than CP1, CP3 and CP6”; the “Radioactivity (inhibition, by competition, of the binding of 2-[3H]mannose-1 phosphate)” value was 25%. Further, in data set [2], the “cell mortality / toxicity (in words)” value is recorded as “a lot less toxic” and the “Toxicity (cell toxicity)” value was 112%.
For the molecule “Di(2,3,4,6-tetra-O-isobutyryl-α-D-mannopyranosyl-1) hydrogen phosphate [Ex. 4]”, in data set [1], the “effectiveness in inhibiting the incorporation of radioactive mannose into glycoproteins (in words)” value is “therapeutically less effective than Ex. 5, Ex. 11, Ex. 12 and Ex. 13”; the “Radioactivity (inhibition, by competition, of the binding of 2-[3H]mannose-1 phosphate)” value is 100%. In data set [2], the “cell mortality / toxicity (in words)” value is listed as “less toxic” and the “Toxicity (cell toxicity)” value was found to be 100%.
For the molecule `CCOC(=O)OC[C@H]1O[C@H](OP(=O)(OCOC(C)=O)OCOC(C)=O)[C@@H](OC(=O)OCC)[C@@H](OC(=O)OCC)[C@@H]1OC(=O)OCC` [CP6, di(acetyloxymethyl) (2,3,4,6-tetra-O-ethyloxycarbonyl)-α-D-manno-pyranosyl-1) phosphate], the “Radioactivity (inhibition, by competition, of the binding of 2-[3H]mannose-1 phosphate)” value in data set [1] was 91%. In addition, in data set [2], the “cell mortality / toxicity (in words)” value is listed as “at least a doubling of cell mortality” and the “Toxicity (cell toxicity)” value is reported as 201%.
`CC(C)(C)C(=O)OCOP(=O)(OCOC(=O)C(C)(C)C)O[C@H]1O[C@H](COC(=O)C(C)(C)C)[C@@H](OC(=O)C(C)(C)C)[C@H](OC(=O)C(C)(C)C)[C@@H]1OC(=O)C(C)(C)C` [CP3, di(pivaloyloxymethyl) (2,3,4,6-tetra-O-pivaloyl-α-D-manno-pyranosyl-1) phosphate]: in data set [1], the “Radioactivity (inhibition, by competition, of the binding of 2-[3H]mannose-1 phosphate)” value was 90%. Besides, in data set [2], the “cell mortality / toxicity (in words)” value is listed as “at least a doubling of cell mortality” and the “Toxicity (cell toxicity)” value is 205%.

The values are drawn from patent US20090054353A1, “MANNOSYL-1 PHOSPHATES, PREPARATION METHOD AND THERAPEUTIC USE, IN PARTICULAR AGAINST THE CDG-IA SYNDROME” (priority 2006, published 2009).
